Source: patent US8728977B2, “Herbicidal combinations comprising tefuryltrione for use in rice crops” (Bayer Cropscience AG, priority 2009, dated 2014)
Read-outs that look alike come from different tables or passages of the source.

Test system: LEFCH (Leptochloa chinensis)
Experiment: Post-emergence action against LEFCH (greenhouse pot test, visual evaluation)
Assay type: in vivo
Settings: for pest or weed control at 50 g/ha: read-out: Action against LEFCH
Procedure: The herbicidal activity of the active substances or active substance mixtures was evaluated visually from the treated variants in comparison with untreated control variants. In this connection, damage to and development of all plant parts above ground was included. The evaluation was carried out according to a percentage scale (100% action=all plants dead; 50% action=50% of the plants and green plant parts dead; 0% action=no recognizable action=as untreated control plot).
Seeds or root pieces of mono- and dicotyledonous weeds are placed in sandy clay soil in pots, covered with earth and secured in a greenhouse under good growing conditions (temperature, air humidity, water supply). Approximately three weeks after sowing, the test plants are treated with the compositions according to the invention. The compositions according to the invention formulated as wettable powders or as emulsion concentrates are sprayed, in spray application, on to the green plant parts in different dosages with a water application rate of 600 to 800 I/ha (corrected). Immediately up to a few days after application, the test receptacles accumulate water over the ground surface by up to 30 mm. With the water application (submerged application), on the other hand, the ground in the closed test receptacle is already covered with the paddy water up to 30 mm at the time of the application. The formulated active substances are here added directly to the paddy water. After an exposure time of the test plants in the greenhouse of an additional 3 to 4 weeks under optimum growing conditions, the effect of the preparations is evaluated visually in comparison with untreated controls. […] In this connection, actions of the combinations according to the invention which exceed the formal sum of the actions of the herbicides when applied individually are frequently observed. The values observed for the tests show, with suitable low dosages, an action of the combinations which lies above the expected values according to Colby.
If the observed activity values already exceed the formal sum of the values for the tests with individual applications, then they likewise exceed the expected value according to Colby, which is calculated according to the following formula and is likewise regarded as an indication of synergy (cf. S. R. Colby in Weeds, 15 (1967), pp. 20 to 22):
[formula] In this connection: • A, B=action of the component A or B in percent at a dosage of a or b grams ai/ha. • E=expected value in % at a dosage of a+b grams ai/ha.
The abbreviation LEFCH is the harmful plant Leptochloa chinensis.

[1] = dosage 12.5 g/ha, single herbicide
[2] = dosage 50 g/ha, single herbicide
[3] = Dinebra chinensis, dosage 50 g/ha, single herbicide
[4] = dosage 2.5 g/ha, single herbicide
[5] = dosage 75 g/ha, single herbicide

In the case of `CC(C)c1nn(C(=O)NC(C)(C)C)c(=O)n1N` [Compound B1, amicarbazone], the “Action against LEFCH” value [1] is reported as 10%.
`Nc1cc(Cl)nc(C(=O)O)c1Cl` [Compound B2, aminopyralid] was tested, and the “Action against LEFCH” value (dosage 7.5 g/ha, single herbicide) was 30%.
For `COC(=O)c1nc(C2CC2)nc(N)c1Cl` [Compound B3, aminocyclopyrachlor-methyl], the “Action against LEFCH” value [2] was 10%.
With `COc1cc(OC)nc(NC(=O)NS(=O)(=O)Nc2ccccc2C(=O)C2CC2)n1` [Compound B4, cyclosulfamuron] the pest or weed control at 50 g/ha [3] was 20%.
With `Cc1ccc2c(c1)[C@H](Nc1nc(N)nc(C(C)F)n1)[C@@H](C)C2` (stereo partly shown) [Compound B5, indaziflam] the “Action against LEFCH” value [4] was 25%.
For `COCC(=O)OC(c1ncccc1S(=O)(=O)NC(=O)Nc1nc(OC)cc(OC)n1)C(C)F` (stereo not shown) [Compound B6, flucetosulfuron], the “Action against LEFCH” value [4] was 20%.
With `CC(C)N(C(=O)n1cnn(-c2ccc(Cl)cc2Cl)c1=O)c1ccc(F)cc1F` [Compound B7, ipfencarbazone] the “Action against LEFCH” value [2] was 25%.
For `C[C@@H](Oc1ccc(Oc2nc3ccc(Cl)cc3o2)cc1)C(=O)N(C)c1ccccc1F` [Compound B8, metamifop], the “Action against LEFCH” value [5] was 15%.
In the case of `COc1cc(OC)nc(NC(=O)NS(=O)(=O)Nc2ccccc2C(=O)N(C)C)n1` [Compound B9, orthosulfamuron], the “Action against LEFCH” value (dosage 30 g/ha, single herbicide) is reported as 40%.
`COc1cnc(OC)n2nc(NS(=O)(=O)c3c(OCC(F)F)cccc3C(F)(F)F)nc12` [Compound B10, penoxsulam] was tested, and the pest or weed control at 15 g/ha (Dinebra chinensis, dosage 15 g/ha, single herbicide) was 20%.
With `CCc1cc(C)cc(CC)c1-c1c(OC(=O)C(C)(C)C)n2n(c1=O)CCOCC2` [Compound B11, pinoxaden] the pest or weed control at 10 g/ha (Dinebra chinensis, dosage 10 g/ha, single herbicide) was 15%.
`CCCc1ccc2nc(Cl)c(S(=O)(=O)NC(=O)Nc3nc(OC)cc(OC)n3)n2n1` [Compound B12, propyrisulfuron] was tested, and the “Action against LEFCH” value [2] was 30%.
With `C#CCN(C)c1c(C#N)cnn1-c1nn2c(c1Cl)CCCC2` [Compound B13, pyraclonil] the “Action against LEFCH” value [5] was 30%.
With `Cc1nn(C)c(O)c1C(=O)c1ccc(C(F)(F)F)cc1S(C)(=O)=O` [Compound B14, pyrasulfotole] the “Action against LEFCH” value [1] was 30%.
`COCc1cccc(C(O)c2nc(OC)cc(OC)n2)c1NS(=O)(=O)C(F)F` (stereo not shown) [Compound B15, pyrimisulfan] was tested, and the “Action against LEFCH” value [2] was 20%.
Molecule `Cn1nc(C(F)(F)F)c(CS(=O)(=O)C2=NOC(C)(C)C2)c1OC(F)F` [Compound B17, pyroxasulfone] has a pest or weed control at 7.5 g/ha (Dinebra chinensis, dosage 7.5 g/ha, single herbicide) of 15%.
With `COc1cc(OC)n2nc(NS(=O)(=O)c3c(C(F)(F)F)ccnc3OC)nc2n1` [Compound B18, pyroxsulam] the “Action against LEFCH” value (dosage 15 g/ha, single herbicide) was 20%.
For `CC(C)N(C)S(=O)(=O)NC(=O)c1cc(-n2c(=O)cc(C(F)(F)F)n(C)c2=O)c(F)cc1Cl` [Compound B19, saflufenacil], the pest or weed control at 3 g/ha (Dinebra chinensis, dosage 3 g/ha, single herbicide) was 8%.
`COc1cc(OC)nc(NC(=O)NS(=O)(=O)c2c(C3=NOCC(C)O3)c(Cl)nn2C)n1` (stereo not shown) [Compound B20, 3-chloro-N-[(4,6-dimethoxypyrimidin-2-yl)carbamoyl]-1-methyl-4-(5-methyl-5,6-dihydro-1,4,2-dioxazin-3-yl)-1H-pyrazole-5-sulfonamide] was tested, and the pest or weed control at 50 g/ha [3] was 15%.
`COC(=O)c1nc(-c2ccc(Cl)c(OC)c2F)cc(N)c1Cl` [Compound B22, methyl 4-amino-3-chloro-6-(4-chloro-2-fluoro-3-methoxyphenyl)pyridine-2-carboxylate] showed a pest or weed control at 50 g/ha (Dinebra chinensis) of 10%.
`COCCOCc1nc(C(F)(F)F)ccc1C(=O)C1C(=O)C2CCC(C2)C1=O` (stereo not shown) [Compound B23, 3-({2-[(2-methoxyethoxy)methyl]-6-(trifluoromethyl)pyridin-3-yl}-carbonyl)bicyclo[3.2.1]octane-2,4-dione] was tested, and the pest or weed control at 12.5 g/ha (Dinebra chinensis, dosage 12.5 g/ha, single herbicide) was 25%.
With `CS(=O)(=O)c1ccc(C(=O)C2C(=O)CCCC2=O)c(Cl)c1COCC1CCCO1` (stereo not shown) [tefuryltrione] the “Action against LEFCH” value [2] was 20%.
